# PubChem BioAssay (NCI)
#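 Five concentrations, 48 hours, 96-well plates. GI50: concentration for 50% inhibition of growth. The concentration for full growth arrest is given as TGI.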
# Experiments:
# Test in all cases: inhibition of tumour cell growth, NCI panel, 48 h
# OVCAR-8 ovarian = test system: OVCAR-8 ovarian
# SK-OV-3 ovarian = test system: SK-OV-3 ovarian
# OVCAR-5 ovarian = test system: OVCAR-5 ovarian
# SNB-75 CNS = test system: SNB-75 CNS
# IGROV1 ovarian = test system: IGROV1 ovarian
# NCI-H23 lung = test system: NCI-H23 lung
# RPMI-8226 leukemia = test system: RPMI-8226 leukemia
# MCF7 breast = test system: MCF7 breast
# U251 CNS = test system: U251 CNS
# SF-539 CNS = test system: SF-539 CNS
# OVCAR-3 ovarian = test system: OVCAR-3 ovarian
# HCT-15 colon = test system: HCT-15 colon
# HT29 colon = test system: HT29 colon
# HOP-62 NSCLC = test system: HOP-62 NSCLC
# T-47D breast = test system: T-47D breast
# SK-MEL-28 melanoma = test system: SK-MEL-28 melanoma
# BT-549 breast = test system: BT-549 breast
# CCRF-CEM leukemia = test system: CCRF-CEM leukemia
# HOP-92 NSCLC = test system: HOP-92 NSCLC
# COLO 205 colon = test system: COLO 205 colon
# NCI-H226 lung = test system: NCI-H226 lung
# HCT-116 colon = test system: HCT-116 colon
# M14 melanoma = test system: M14 melanoma
# LOX IMVI melanoma = test system: LOX IMVI melanoma
# MDA-MB-231 breast = test system: MDA-MB-231 breast
# A498 renal = test system: A498 renal
# MDA-N = test system: MDA-N
# SNB-19 CNS = test system: SNB-19 CNS
# SK-MEL-2 melanoma = test system: SK-MEL-2 melanoma
structure (smiles),measurement,setting,value
CCCCCC[n+]1noc(N)c1-c1ccc(-c2c(N)on[n+]2CCCCCC)cc1,GI50,OVCAR-8 ovarian,2.6 µg/mL
same,TGI,OVCAR-8 ovarian,9.53 µg/mL
same,GI50,SK-OV-3 ovarian,3.37 µg/mL
same,TGI,SK-OV-3 ovarian,11 µg/mL
same,GI50,OVCAR-5 ovarian,5.54 µg/mL
same,TGI,OVCAR-5 ovarian,14.6 µg/mL
same,GI50,SNB-75 CNS,3.41 µg/mL
same,TGI,SNB-75 CNS,11.3 µg/mL
same,GI50,IGROV1 ovarian,6.74 µg/mL
same,TGI,IGROV1 ovarian,20.4 µg/mL
same,GI50,NCI-H23 lung,14.1 µg/mL
same,TGI,NCI-H23 lung,27.9 µg/mL
same,GI50,RPMI-8226 leukemia,1.98 µg/mL
same,TGI,RPMI-8226 leukemia,4.71 µg/mL
same,GI50,MCF7 breast,1.97 µg/mL
same,TGI,MCF7 breast,4.1 µg/mL
same,GI50,U251 CNS,1.71 µg/mL
same,TGI,U251 CNS,3.47 µg/mL
same,GI50,SF-539 CNS,1.77 µg/mL
same,TGI,SF-539 CNS,3.42 µg/mL
same,GI50,OVCAR-3 ovarian,12.7 µg/mL
same,TGI,OVCAR-3 ovarian,26.1 µg/mL
same,GI50,HCT-15 colon,2.59 µg/mL
same,TGI,HCT-15 colon,8.72 µg/mL
same,GI50,HT29 colon,1.85 µg/mL
same,TGI,HT29 colon,4.01 µg/mL
same,GI50,HOP-62 NSCLC,7.64 µg/mL
same,TGI,HOP-62 NSCLC,20.6 µg/mL
same,GI50,T-47D breast,2.49 µg/mL
same,TGI,T-47D breast,6.28 µg/mL
same,GI50,SK-MEL-28 melanoma,1.69 µg/mL
same,TGI,SK-MEL-28 melanoma,3.13 µg/mL
same,GI50,BT-549 breast,3.83 µg/mL
same,TGI,BT-549 breast,14 µg/mL
same,GI50,CCRF-CEM leukemia,5.09 µg/mL
same,TGI,CCRF-CEM leukemia,10.1 µg/mL
same,GI50,HOP-92 NSCLC,1.09 µg/mL
same,TGI,HOP-92 NSCLC,5.91 µg/mL
same,GI50,COLO 205 colon,1.66 µg/mL
same,TGI,COLO 205 colon,3.58 µg/mL
same,GI50,NCI-H226 lung,14.2 µg/mL
same,TGI,NCI-H226 lung,28.2 µg/mL
same,GI50,HCT-116 colon,3.97 µg/mL
same,TGI,HCT-116 colon,14.3 µg/mL
same,GI50,M14 melanoma,1.9 µg/mL
same,TGI,M14 melanoma,3.43 µg/mL
same,GI50,LOX IMVI melanoma,1.95 µg/mL
same,TGI,LOX IMVI melanoma,4.21 µg/mL
same,GI50,MDA-MB-231 breast,3.3 µg/mL
same,TGI,MDA-MB-231 breast,9.87 µg/mL
same,GI50,A498 renal,6.03 µg/mL
same,TGI,A498 renal,16 µg/mL
same,GI50,MDA-N,1.78 µg/mL
same,TGI,MDA-N,3.48 µg/mL
same,GI50,SNB-19 CNS,9.62 µg/mL
same,TGI,SNB-19 CNS,22.8 µg/mL
same,GI50,SK-MEL-2 melanoma,1.61 µg/mL
same,TGI,SK-MEL-2 melanoma,3.1 µg/mL
